# Experimental data reported in PMC6324689 (Oncotarget, 2018).
# Read-outs that look alike come from different tables or passages of the source.
# Experiments:
# [1] = test system: human bone marrow CD34+ cells; experiment: In vitro liquid culture system for human megakaryocyte-specific development; format: cell-based
# Description: CD34^+ cells were harvested from normal human bone marrow and differentiated into megakaryocytes. In this model system, the first 7 days of culture are dominated by proliferation of early progenitor cells, with differentiation and maturation occurring typically between day 7 and 10.
# In vitro human megakaryocyte differentiation was assessed using a liquid culture system in which the human bone marrow CD34^+ cells (lot # 0150114, ReachBio) derived from normal bone marrow were used. X-Vivo 15 (Lonza) containing 100 ng/mL SCF (Peprotech) and 50 ng/mL Tpo was used to drive CD34^+ cells proliferation and differentiation into megakaryocyte lineage cells. Test drugs were incubated with CD34^+ cell for either 7 days or 10 days. The megakaryocyte lineage cells characterized by an ability to exclude DAPI were analyzed by flow cytometry. The percentage of megakaryocyte lineage cells in the total CD34^+ cells were then calculated. To determine the IC50 values, XLFit was used. The dose-response data for the relevant experimental conditions were tabulated and then processed using curve-fitting algorithm 205 provided in XLFit.
# BCRP = biological target: T1, BCRP (Homo sapiens, UniProt Q9UNQ0); experiment: MDCKII-BCRP monolayer bidirectional transport assay; format: in vitro ADME; conditions: MDCKII-BCRP cells; for Papp A→B at 120 min, 1 μM / Papp B→A at 120 min, 1 μM / Papp A→B at 120 min, 10 μM / Papp B→A at 120 min, 10 μM / Papp A→B at 120 min, 100 μM / Papp B→A at 120 min, 100 μM: human
# T1 construct: host or cells: MDCKII
# T1 sequence (Q9UNQ0 1-655): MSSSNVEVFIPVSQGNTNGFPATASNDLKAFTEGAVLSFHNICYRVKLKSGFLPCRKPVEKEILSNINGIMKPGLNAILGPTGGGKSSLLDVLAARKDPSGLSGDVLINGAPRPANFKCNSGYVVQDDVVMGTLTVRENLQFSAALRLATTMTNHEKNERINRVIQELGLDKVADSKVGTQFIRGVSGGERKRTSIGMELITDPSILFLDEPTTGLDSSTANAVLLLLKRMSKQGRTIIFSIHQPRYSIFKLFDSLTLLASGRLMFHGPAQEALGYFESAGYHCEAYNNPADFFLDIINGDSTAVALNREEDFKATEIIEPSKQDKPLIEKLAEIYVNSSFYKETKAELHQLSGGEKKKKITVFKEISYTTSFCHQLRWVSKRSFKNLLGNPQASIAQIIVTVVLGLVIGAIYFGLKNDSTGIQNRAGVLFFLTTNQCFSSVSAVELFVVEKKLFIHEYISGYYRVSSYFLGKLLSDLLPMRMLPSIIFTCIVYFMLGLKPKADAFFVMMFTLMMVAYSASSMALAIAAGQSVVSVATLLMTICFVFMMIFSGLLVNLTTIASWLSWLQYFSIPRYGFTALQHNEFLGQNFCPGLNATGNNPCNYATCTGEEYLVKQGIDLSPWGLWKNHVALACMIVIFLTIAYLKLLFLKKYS
# Description: The monolayer assays were performed using parental and BCRP or MDR1 transfected MDCKII cell monolayers. […] Transfected and parental MDCKII cells were cultured on the inserts with 100 μL medium per well on the apical side and 25 mL in a single-well receiver tray for all 24 wells on the basolateral side, for 96 hours. Medium was changed 24 hours before the experiment. Permeability incubations were carried out in Hank’s Buffered Salt Solution (HBSS) at 37 ± 1°C. […] LY samples (100 μL from basolateral wells) were analyzed by measuring fluorescence with the following wavelengths: excitation – 430 nm, emission – 520 nm. Trans-epithelial electric resistance (TEER) of each well was measured to confirm the confluency of the monolayers after the experiments. The assays were conducted according to the actual SOLVO MDCKII-BCRP and MDCKII-MDR1 monolayer assay protocols (SOP). […] Cells were pre-incubated in assay buffer for 10 minutes to allow cells adjusting to the medium. Assay buffer containing the test articles (separately) at three concentrations (1 μM, 10 μM and 100 μM) was then added to the appropriate apical (100 μL) or basolateral (600 μL) chamber. […] The prazosin or digoxin efflux ratio was determined as a positive control for BCRP or MDR1 function, respectively. […] Bidirectional transport of the test articles in control, MDCKII-BCRP and MDCKII-MDR1 cells was determined by LC-MS/MS.
# [2] = 168 h, 7 days (proliferation), read-out: IC50, megakaryocyte lineage cells, day 7
# [3] = 240 h, 10 days (differentiation and maturation), read-out: IC50, megakaryocyte lineage cells, day 10
Structure (SMILES),"IC50 [1, 2] [µM]","IC50 [1, 3] [µM]",Net ER (BCRP; 1 μM),Net ER (BCRP; 10 μM),Net ER (BCRP; 100 μM),"Papp A→B at 120 min, 1 μM (BCRP; 1 μM) [×10⁻⁶ cm/s]","Papp B→A at 120 min, 1 μM (BCRP; 1 μM) [×10⁻⁶ cm/s]","Papp A→B at 120 min, 10 μM (BCRP; 10 μM) [×10⁻⁶ cm/s]","Papp B→A at 120 min, 10 μM (BCRP; 10 μM) [×10⁻⁶ cm/s]","Papp A→B at 120 min, 100 μM (BCRP; 100 μM) [×10⁻⁶ cm/s]","Papp B→A at 120 min, 100 μM (BCRP; 100 μM) [×10⁻⁶ cm/s]"
O=C(c1cc(Cc2n[nH]c(=O)c3ccccc23)ccc1F)N1CCN(C(=O)C2CC2)CC1 [Olaparib],1.6,1.3,32.97 ± 9.58,71.22 ± 14.97,50.54 ± 13.65,1.12 ± 1.04,41.4 ± 4.35,0.59 ± 0.33,44.1 ± 2.65,0.9 ± 0.22,46.8 ± 3.4
"NC(=O)c1cccc2cn(-c3ccc([C@@H]4CCCNC4)cc3)nc12 [Niraparib, 2-{4-[(3S)-piperidin-3-yl]phenyl}-2H-indazole-7-carboxamide]",1.2,0.8,8.86 ± 3.28,24.73 ± 6.47,9.58 ± 1.70,4.83 ± 2.29,52.1 ± 3.09,2.27 ± 0.7,59.6 ± 3.65,4.1 ± 0.13,43.1 ± 2.62
